Laboratory results reported in patent US20220304955A1 (Nacuity Pharmaceuticals, Inc., priority 2021, published 2022).

Experiments:
[1] = biological target: T1, glutamate cysteine ligase (GCL, EC 6.3.2.2) (Homo sapiens, UniProt P48506); details: read-out: apparent Km; cited from earlier work
T1 sequence (P48506 1-637): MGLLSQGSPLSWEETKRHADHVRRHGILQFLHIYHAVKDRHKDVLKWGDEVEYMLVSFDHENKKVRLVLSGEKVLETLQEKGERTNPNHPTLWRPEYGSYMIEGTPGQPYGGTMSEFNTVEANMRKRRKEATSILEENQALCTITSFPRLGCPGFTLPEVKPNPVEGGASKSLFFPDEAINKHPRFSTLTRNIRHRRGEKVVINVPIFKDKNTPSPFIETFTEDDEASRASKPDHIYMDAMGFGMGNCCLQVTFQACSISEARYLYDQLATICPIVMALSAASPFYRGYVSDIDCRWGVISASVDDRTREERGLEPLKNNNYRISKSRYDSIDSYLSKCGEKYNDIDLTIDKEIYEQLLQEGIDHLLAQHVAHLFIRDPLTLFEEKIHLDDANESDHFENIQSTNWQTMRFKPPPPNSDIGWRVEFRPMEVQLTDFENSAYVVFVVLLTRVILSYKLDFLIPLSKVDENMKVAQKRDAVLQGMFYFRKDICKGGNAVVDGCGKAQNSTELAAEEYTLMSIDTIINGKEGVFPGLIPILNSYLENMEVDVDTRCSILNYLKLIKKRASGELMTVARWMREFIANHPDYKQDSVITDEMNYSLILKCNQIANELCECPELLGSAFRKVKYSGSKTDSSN
T1 sequence (P48507 1-274 partner): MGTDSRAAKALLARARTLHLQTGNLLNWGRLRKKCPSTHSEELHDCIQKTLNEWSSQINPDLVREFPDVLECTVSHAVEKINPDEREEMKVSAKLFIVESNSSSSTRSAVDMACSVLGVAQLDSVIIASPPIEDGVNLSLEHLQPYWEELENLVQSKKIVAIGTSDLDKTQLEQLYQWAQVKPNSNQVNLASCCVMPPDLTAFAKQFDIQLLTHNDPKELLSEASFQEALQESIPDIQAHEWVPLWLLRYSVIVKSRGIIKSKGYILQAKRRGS

[2] = test system: N27 cells; assay: Cellular ferroptosis assay, cell viability by MTT; format: cell-based, rat
Description: Materials and Methods. […] Cells were cultured at 37° C. with 5% CO2.

[3] = test system: Caenorhabditis elegans; assay: Caenorhabditis elegans Lifespan assay; format: in vivo; details: for Median survival: from late L4 larval/young adult stage, 25 °C, strain TJ1060
Description: NAC and NACA were dissolved in sterile water then added to the molten NGM at 55° C. Media containing equivalent vehicle alone (1% v/v DMSO) was used for comparison. 1% v/v DMSO was also added to NAC and NACA plates for consistency, as DMSO itself may affect lifespan. Standard overnight culture of the Escherichia coli strain OP50 was used as the food source. Lifespan data were collected at 25 (±1) ° C. using the temperature sensitive-sterile strain TJ1060 [spe-9(hc88); rrf-3(b26)] as a proxy for wildtype. A developmentally synchronous population was obtained by transferring egg-laying adults to fresh plates at 16° C. for 4 hours. The adults were removed and the plates with eggs then transferred to 25° C. to ensure sterility. After 48 hours at 25° C., when worms were at the late L4 larval/young adult stage, 25-35 nematodes were transferred to fresh plates containing either vehicle control (1% v/v DMSO), 1 mM NAC, 10 mM NAC, 1 mM NACA, 10 mM NACA, 1 mM diNACA, and 10 mM diNACA. All plates were coded to allowing blinding of the experimenter to the treatment regime during scoring. Nematodes were scored for survival at 1 to 2-day intervals and transferred to freshly prepared plates as needed (every 2-4 days). Worms lost not due to death were recorded as censored.
Results. Data was analyzed using GraphPad Prism 9, with survival curves compared using a long-rank (Mantel-Cox) test. P values are given for pair-wise comparisons to the vehicle control population.

[4] = test system: C. elegans; assay: Diethyl maleate (DEM) assay, survival of C. elegans; format: in vivo, Caenorhabditis elegans; details: for % alive: then 10 mM DEM, scored at 24 hours
Description: Materials and Methods. Effects of NAC, NACA and diNACA on diethyl maleate (DEM; Sigma-Aldrich)-induced toxicity in C. elegans was evaluated. (10 mM DEM alone conjugates GSH causing 50% depletion of GSH and 50% lethality after 24 hour exposure (Jenkins et al., 2020)). DEM was added to neat DMSO and added to molten NGM at 55° C. to a final concentration of 10 mM DEM and 0.5% v/v DMSO. Plates were seeded with E. coli strain OP50. Data were collected at 25 (±1) ° C. using the temperature sensitive-sterile strain TJ1060. A synchronous population was obtained by transferring egg-laying adults to fresh plates at 16° C. for 2-3 hours. The adults were removed and the plates with eggs then transferred to 25° C. to ensure sterility. After 48 hours at 25° C., when worms were at the late L4/young adult stage, 70 nematodes were transferred to fresh plates containing either vehicle control, 1 mM NAC, 10 mM NAC, 1 mM NACA, 10 mM NACA, 1 mM diNACA, 10 mM diNACA (all with 1.0% v/v DMSO). Worms were aged at 25° C. for a further 4 days and then transferred to DEM plates, 35-45 per plate, two plates per treatment. Survival, determined by touch-provoked movement, was scored at 24 hours after exposure to DEM.

[5] = Bioavailability after oral administration in rat (plasma levels); format: in vivo
Description: Materials and Methods. Bioavailability of diNACA after oral administration in rat was evaluated. NACA and diNACA, separately, were suspended in phosphate-buffered saline (pH 7) and dosed to rats by oral gavage. Blood specimens were collected and processed to produce plasma. Plasma specimens were analyzed for NAC, NACA and diNACA concentration.
The thiol moiety of NAC, NACA, or diNACA and their respective internal standards oxidizes quickly in plasma through formation of disulfides. In order to determine total NAC and total NACA levels in plasma, tris(2-carboxyethyl)phosphine (TCEP) is added during the extraction to reduce disulfide bonds. Ammonium bicarbonate is added to control sample pH near neutral, as TCEP will otherwise acidify the aliquoted samples and hinder derivatization. The free analyte is then derivatized to a stable thioether using 2-chloro-1-methylpyridinium iodide (CMPI). […]
Thioether derivatives of NAC and NACA for LCMS analyses. Samples were analyzed on a Waters Acquity liquid chromatograph interfaced with a Thermo Scientific TSQ Vantage triple quadrupole mass spectrometer with ESI ionization. […]

[6] = Solubility of diNACA in solvents; format: physicochemical

absorption after oral administration ([5]; 200 mg/kg oral gavage, suspension in PBS pH 7) | solubility in water or DMSO ([6]; Nacuity data on file) | solubility in neat DMSO ([6]; suspension, dissolved upon addition to NGM) | SMILES | Km [1] [µM] | anti-ferroptotic activity on pretreatment prior to ferroptosis induction ([2]; 50 or 500 μM in PBS for 24 hours, then erastin, RSL3 or glutamate for additional 24 hours) | concentration at which a small effect on RSL3 toxicity is seen ([2]; diNACA solubilized in media (2-75 mM), RSL3 100 nM, 24 hours) [mM] | concentration partially preventing erastin and glutamate-induced toxicity ([2]; diNACA solubilized in media (2-75 mM), erastin 2 μM or glutamate 100 mM, 24 hours) [mM] | prevention of ferroptosis induced by erastin, RSL3 and glutamate (cell viability) ([2]; erastin 2 μM, RSL3 100 nM or glutamate 100 mM, 24 hours, added at same time, liproxstatin-1 4-250 nM, NAC, NACA (in water), diNACA (in NMP) 8-500 μM) | anti-ferroptotic activity on post-treatment ([2]; erastin, RSL3 or glutamate for 5 hours, then 50 or 500 μM in PBS for additional 19 hours) | increase in lifespan ([3]; 1 mM) | Median survival ([3]; 1 mM in NGM) [days] | increase in lifespan ([3]; 10 mM) | Median survival ([3]; 10 mM in NGM) [days] | lifespan of C. elegans relative to control ([3]; FIG. 8) | percentage lifespan extension, increase in median lifespan ([3]; versus control) [%] | rescue from DEM-induced toxicity ([4]; 1 mM) | % alive ([4]; 1 mM pre-treatment 4 days) [%] | rescue from DEM-induced toxicity ([4]; 10 mM) | % alive ([4]; 10 mM pre-treatment 4 days) [%] | metabolism, plasma levels of NACA and NAC ([5]; 200 mg/kg oral diNACA compared with oral NACA)
– | – | – | N[C@@H](CS)C(=O)O [cysteine, L-cysteine] | 100 to 300 | – | – | – | – | – | – | – | – | – | – | – | – | – | – | – | –
well absorbed | not soluble in water or DMSO | not fully soluble in DMSO | CC(=O)N[C@@H](CSSC[C@H](NC(C)=O)C(N)=O)C(N)=O [diNACA, (2R,2R′)-3,3′-disulfanediyl bis(2-acetamidopropanamide)] | – | did not differentiate anti-ferroptotic activity | 75 | ≥ 5 | did not prevent ferroptosis | did not differentiate anti-ferroptotic activity | marked increase in lifespan | 18 | marked increase in lifespan | 18 | more than doubled the lifespan | 125 | rescue | 95 | rescue | 98 | metabolized to NACA and NAC to yield greater levels for longer periods of time compared to oral dosing with NACA
